Assay results taken from ChEMBL document CHEMBL3988442, “University of Dundee, Small-Polar-MMV Screening Library” (2021).
Values joined by “and” are separate entries in the source; they are usually repeats but may differ in a detail not shown here. Identical values can stand only once.

What was measured:
Proteasome subunit beta = molecular target: T1, Proteasome subunit beta (Trypanosoma cruzi, UniProt O96673); experiment: Trypanosoma cruzi proteasome chymotrypsin-like activity (TcProtChymo) assay.; format: functional
T1 sequence (O96673 whole entry): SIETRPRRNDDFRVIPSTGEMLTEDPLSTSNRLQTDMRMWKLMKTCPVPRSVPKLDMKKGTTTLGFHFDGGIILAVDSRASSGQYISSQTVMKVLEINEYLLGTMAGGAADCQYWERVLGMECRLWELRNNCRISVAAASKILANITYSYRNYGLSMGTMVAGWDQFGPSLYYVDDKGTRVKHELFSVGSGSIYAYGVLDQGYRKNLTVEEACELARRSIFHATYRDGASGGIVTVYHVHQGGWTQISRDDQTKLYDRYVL

[1] = Trypanosoma cruzi proteasome luciferase counter-screen; format: functional, N/A
Leishmania donovani = experiment: Leishmania intramacrophage assay; format: functional, organism-based; details: for IC50: Leishmania donovani
[2] = In vitro enzyme assay to detect hydrolysis of chlorophenol red-beta-D-[…] directly proportional to the number of Toxoplasma stably expressing beta-galactosidase; format: functional, organism-based, Toxoplasma gondii; details: Toxoplasma gondii
[3] = To identify inhibition of the IFN signalling (Jak-Stat) pathway via expression of an eGFP reporter gene under the control of an IFN-stimulated response element (ISRE) containing MxA promoter.; format: functional, Homo sapiens
Trypanosoma brucei = experiment: Trypanosoma brucei 72 hour study; format: functional, organism-based
Plasmodium falciparum = experiment: Calibr Malaria Delayed Death Assay SOP; format: functional, organism-based
Schistosoma mansoni = experiment: High throughput screening of compounds against Schistosoma mansoni motility; format: functional; set-up: dose or concentration left out as unconfirmed
Wolbachia pipientis = experiment: Anti-Wolbachia Cell-Based Screen; format: functional; details: Wolbachia pipientis
[4] = molecular target: AMP-activated protein kinase, AMPK; experiment: AMP-dependent Kinase enzyme assay. An in vitro enzyme assay that detects ADP turnover that is directly proportional to AMPK activity. This uses naive AMPK that is activated during the assay with MK-8722; format: functional, Homo sapiens
[5] = molecular target: Chromo domain-containing protein 1 (Saccharomyces cerevisiae (strain ATCC 204508 / S288c) (Baker's yeast), UniProt P32657); experiment: ScCHD-1 Enzyme Inhibition Assay; format: functional
Chromo domain-containing protein 1, sequence (P32657 whole entry, the tested form may be a part): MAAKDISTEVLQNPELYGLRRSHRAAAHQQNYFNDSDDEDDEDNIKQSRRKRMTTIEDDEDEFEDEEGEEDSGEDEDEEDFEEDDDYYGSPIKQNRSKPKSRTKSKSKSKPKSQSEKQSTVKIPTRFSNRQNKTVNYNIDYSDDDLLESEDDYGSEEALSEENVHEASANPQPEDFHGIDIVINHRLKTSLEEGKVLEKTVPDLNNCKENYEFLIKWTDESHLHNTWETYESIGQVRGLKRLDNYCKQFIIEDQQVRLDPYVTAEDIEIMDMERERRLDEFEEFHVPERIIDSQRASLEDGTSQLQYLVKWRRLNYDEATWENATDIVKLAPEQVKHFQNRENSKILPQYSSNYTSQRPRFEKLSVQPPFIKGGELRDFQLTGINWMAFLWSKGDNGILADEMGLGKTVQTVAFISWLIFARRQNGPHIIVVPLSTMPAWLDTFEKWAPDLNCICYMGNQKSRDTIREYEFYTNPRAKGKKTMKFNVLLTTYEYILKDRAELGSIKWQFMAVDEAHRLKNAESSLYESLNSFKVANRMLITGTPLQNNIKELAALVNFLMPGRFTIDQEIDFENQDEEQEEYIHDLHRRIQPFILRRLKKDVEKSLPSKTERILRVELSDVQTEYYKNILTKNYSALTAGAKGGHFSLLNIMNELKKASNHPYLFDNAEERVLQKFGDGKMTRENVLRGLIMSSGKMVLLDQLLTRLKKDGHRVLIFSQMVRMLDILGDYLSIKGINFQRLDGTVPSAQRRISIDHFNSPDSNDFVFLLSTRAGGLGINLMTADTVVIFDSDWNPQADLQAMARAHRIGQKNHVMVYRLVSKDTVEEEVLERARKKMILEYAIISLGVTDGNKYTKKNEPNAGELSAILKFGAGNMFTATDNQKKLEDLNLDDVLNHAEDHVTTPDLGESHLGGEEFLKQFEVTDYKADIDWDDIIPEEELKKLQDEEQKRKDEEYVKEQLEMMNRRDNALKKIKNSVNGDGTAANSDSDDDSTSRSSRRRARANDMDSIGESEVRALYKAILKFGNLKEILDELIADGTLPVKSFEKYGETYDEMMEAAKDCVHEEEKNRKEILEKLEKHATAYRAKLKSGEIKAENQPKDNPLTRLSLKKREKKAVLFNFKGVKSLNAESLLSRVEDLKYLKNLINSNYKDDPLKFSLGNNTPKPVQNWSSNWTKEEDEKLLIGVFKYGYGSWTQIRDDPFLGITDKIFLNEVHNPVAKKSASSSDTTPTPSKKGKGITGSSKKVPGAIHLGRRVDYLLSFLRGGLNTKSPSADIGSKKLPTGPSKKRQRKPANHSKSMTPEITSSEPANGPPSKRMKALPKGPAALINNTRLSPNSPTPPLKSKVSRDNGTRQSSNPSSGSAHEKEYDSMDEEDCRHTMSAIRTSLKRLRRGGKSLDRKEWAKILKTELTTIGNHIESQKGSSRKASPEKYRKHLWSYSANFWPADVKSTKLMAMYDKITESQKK

Histidine--tRNA ligase = molecular target: T2, Histidine--tRNA ligase (Leishmania infantum, UniProt A4I591); experiment: Leishmania infantum Histidine tRNA synthetase (LdHisRS); format: functional
T2 sequence (A4I591 whole entry): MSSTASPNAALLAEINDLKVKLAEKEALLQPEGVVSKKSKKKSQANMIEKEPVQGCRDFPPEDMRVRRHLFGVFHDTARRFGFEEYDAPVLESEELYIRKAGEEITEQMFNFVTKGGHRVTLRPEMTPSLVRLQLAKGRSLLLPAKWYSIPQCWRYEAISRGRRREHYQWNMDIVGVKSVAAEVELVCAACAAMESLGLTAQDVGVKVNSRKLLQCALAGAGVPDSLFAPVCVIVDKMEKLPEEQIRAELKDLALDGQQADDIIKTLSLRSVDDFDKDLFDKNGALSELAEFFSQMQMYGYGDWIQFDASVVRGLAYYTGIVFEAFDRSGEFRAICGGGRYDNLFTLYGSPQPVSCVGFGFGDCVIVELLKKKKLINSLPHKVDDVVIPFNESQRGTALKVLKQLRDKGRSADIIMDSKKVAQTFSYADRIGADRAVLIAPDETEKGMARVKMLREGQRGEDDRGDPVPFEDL

[6] = molecular target: Polyketide synthase Pks13 (Mycobacterium tuberculosis (strain ATCC 25618 / H37Rv), UniProt I6X8D2); experiment: Mycobacterium tuberculosis Polyketide synthase 13 Thioesterase (PKS13); format: functional
Polyketide synthase Pks13, sequence (I6X8D2 whole entry): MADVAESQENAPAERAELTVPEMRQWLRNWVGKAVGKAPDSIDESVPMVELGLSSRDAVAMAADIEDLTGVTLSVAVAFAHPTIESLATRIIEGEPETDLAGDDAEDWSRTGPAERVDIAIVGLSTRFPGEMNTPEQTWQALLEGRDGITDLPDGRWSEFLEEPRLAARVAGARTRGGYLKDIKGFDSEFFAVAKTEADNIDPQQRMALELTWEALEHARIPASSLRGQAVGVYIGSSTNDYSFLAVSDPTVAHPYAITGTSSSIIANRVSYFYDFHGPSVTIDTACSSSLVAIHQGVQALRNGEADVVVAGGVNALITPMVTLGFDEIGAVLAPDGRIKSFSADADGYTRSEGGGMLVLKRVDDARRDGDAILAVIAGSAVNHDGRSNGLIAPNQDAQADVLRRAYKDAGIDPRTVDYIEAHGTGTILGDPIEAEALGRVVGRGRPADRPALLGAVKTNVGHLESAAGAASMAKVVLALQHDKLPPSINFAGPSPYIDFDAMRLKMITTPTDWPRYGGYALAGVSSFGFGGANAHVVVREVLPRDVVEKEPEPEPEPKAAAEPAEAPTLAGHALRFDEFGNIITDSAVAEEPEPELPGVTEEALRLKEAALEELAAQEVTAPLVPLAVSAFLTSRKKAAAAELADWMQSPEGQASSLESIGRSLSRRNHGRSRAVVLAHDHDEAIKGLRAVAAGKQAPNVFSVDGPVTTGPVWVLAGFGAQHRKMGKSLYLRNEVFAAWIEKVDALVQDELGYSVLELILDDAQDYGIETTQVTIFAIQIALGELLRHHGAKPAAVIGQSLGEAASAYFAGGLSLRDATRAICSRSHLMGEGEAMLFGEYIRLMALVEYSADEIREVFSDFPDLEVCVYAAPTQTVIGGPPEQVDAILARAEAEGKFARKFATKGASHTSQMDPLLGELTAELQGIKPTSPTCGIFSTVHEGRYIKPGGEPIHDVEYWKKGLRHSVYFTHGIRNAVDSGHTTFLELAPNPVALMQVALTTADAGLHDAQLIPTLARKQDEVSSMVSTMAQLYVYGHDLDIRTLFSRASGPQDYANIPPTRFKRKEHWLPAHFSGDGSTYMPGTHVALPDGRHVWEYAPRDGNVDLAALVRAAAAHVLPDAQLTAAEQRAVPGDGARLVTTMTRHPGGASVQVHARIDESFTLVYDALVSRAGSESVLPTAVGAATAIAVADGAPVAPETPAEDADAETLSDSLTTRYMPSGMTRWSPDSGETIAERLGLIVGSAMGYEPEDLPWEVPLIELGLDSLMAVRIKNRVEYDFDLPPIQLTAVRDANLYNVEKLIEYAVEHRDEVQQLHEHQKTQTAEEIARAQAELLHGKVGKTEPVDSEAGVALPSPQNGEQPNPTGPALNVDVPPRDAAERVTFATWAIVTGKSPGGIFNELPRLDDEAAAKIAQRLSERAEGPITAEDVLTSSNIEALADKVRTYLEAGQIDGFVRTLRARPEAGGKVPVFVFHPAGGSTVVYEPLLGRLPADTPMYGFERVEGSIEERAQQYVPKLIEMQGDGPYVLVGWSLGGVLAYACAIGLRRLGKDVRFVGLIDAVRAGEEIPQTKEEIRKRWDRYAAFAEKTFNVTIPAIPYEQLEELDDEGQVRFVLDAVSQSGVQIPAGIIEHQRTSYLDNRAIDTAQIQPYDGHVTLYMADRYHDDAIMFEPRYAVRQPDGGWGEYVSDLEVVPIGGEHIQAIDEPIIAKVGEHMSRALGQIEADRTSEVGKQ

ClpP1P2 = ClpP1P2 (Mycobacterium tuberculosis (strain ATCC 25618 / H37Rv), UniProt P9WPC3+P9WPC5); experiment: in vitro assay to detect presence of AMC directly proportional to the activity of ClpP1P2. GHDDI collaboration.; format: functional
ClpP1P2, sequence (P9WPC5 whole entry): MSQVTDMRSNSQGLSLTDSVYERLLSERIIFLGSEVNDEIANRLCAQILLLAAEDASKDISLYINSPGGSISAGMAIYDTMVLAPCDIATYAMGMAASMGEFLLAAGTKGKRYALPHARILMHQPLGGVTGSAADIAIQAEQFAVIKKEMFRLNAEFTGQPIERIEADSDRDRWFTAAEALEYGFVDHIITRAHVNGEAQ
ClpP1P2, sequence (P9WPC3 whole entry): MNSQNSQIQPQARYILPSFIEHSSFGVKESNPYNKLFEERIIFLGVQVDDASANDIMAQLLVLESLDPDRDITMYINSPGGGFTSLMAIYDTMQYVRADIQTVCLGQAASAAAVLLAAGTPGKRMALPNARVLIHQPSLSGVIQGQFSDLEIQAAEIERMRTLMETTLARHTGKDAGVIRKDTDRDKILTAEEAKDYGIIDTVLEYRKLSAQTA

Lysine--tRNA ligase = Lysine--tRNA ligase (Plasmodium falciparum (isolate 3D7), UniProt Q8IDJ8); experiment: Pf-KRS-1 (Lysyl-RNA Synthetase-1, KRS-1, cytosolic KRS) from Plasmodium falciparum. Inhibitor assay, 384 well plate, luminescence read.; format: functional
Lysine--tRNA ligase, sequence (Q8IDJ8 whole entry): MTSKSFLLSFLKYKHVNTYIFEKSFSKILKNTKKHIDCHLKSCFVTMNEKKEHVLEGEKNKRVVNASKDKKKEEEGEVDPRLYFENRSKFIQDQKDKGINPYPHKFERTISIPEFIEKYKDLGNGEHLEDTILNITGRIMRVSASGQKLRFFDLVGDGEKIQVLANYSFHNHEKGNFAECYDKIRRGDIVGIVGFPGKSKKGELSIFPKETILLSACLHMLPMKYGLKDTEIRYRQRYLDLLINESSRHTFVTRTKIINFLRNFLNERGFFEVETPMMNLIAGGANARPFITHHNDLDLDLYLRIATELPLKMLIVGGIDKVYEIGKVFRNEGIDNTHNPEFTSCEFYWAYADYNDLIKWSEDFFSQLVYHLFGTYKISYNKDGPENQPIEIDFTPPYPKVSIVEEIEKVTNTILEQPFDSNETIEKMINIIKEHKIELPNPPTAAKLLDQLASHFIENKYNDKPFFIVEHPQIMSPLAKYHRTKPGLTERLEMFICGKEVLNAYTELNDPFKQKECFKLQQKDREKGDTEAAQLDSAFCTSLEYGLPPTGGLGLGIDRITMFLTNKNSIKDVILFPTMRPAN

[7] = microbe, parasite or virus in culture; details: Mycobacterium tuberculosis, 96 h, read-out: pIC50 (converted)
[8] = microbe, parasite or virus in culture; details: Mycobacterium tuberculosis, 72 h, read-out: pIC50 (converted)

| SMILES | IC50 (Proteasome subunit beta) | pIC50 [1] | pIC50 [3] | other results |
| --- | --- | --- | --- | --- |
| Cc1cc(C(=O)N2CCC3(CCCN(CC4CC4)C3=O)C2)c(C)n1C (stereo unspecified) | > 100 µM and 85.7 µM | < 4 | – | – |
| Cc1nc(CN2CCOC(CNc3cccnn3)C2)oc1C (stereo unspecified) | > 100 µM | < 4 | – | – |
| COc1ccccc1CNC(=O)C1=NN(c2ccc(C)cc2)C(=O)CN1 | – | – | 4.606 and 4.808 | pIC50 (Leishmania donovani): < 4.3 and 4.742; IC50 [2]: 10.8 µM |
| CCCC(NC(=O)c1cc(C)n(C2CC2)c1C)c1nnn[nH]1 (stereo unspecified) | 55.7 µM and 67.9 µM | < 4 | – | – |
| O=C(Nc1ccc(F)c(Br)c1)N1CCCC1 | 11.4 µM and 11.2 µM | < 4 | – | – |
| Cc1nc[nH]c1CN(C)CC1CCCN(CCc2ccc(Cl)cc2)C1 (stereo unspecified) | – | – | 4.612 and 4.41 | pIC50 (Leishmania donovani): 5.148; IC50 (Leishmania donovani): 8.56 µM; pIC50 (Trypanosoma brucei): 5.168 and 5.164; IC50 (Trypanosoma brucei; Trypanosoma brucei, 72 h): 6.79 µM; pIC50 (Plasmodium falciparum): 6.162; IC50 (Plasmodium falciparum; Plasmodium falciparum): 0.565 µM; Percent Effect (Schistosoma mansoni): 102.7% |
| Cc1ccc(NCc2cncc3c2CCN(C(=O)C2CC=CC2)C3)nn1.Cl | > 100 µM | < 4 | – | – |
| Cl.c1ccc(-c2ccc(C3CNCCO3)nc2)cc1 (stereo unspecified) | 13.7 µM and 13 µM | 4.18 and 4.164 | – | – |
| Cc1cnn(CC2CCCN2CC(=O)N(C)Cc2ccc(C)o2)c1 (stereo unspecified) | > 100 µM | < 4 | – | – |
| Cc1ccc(C(=O)Nc2cn[nH]c2)cc1C | 13.3 µM and 12.6 µM | 4.136 and 4.208 | – | – |
| COc1c(CNC2CCSc3ccc(F)cc32)c(C)nn1C.Cl (stereo unspecified) | – | – | 4.845 and 5.142 | IC50 (Wolbachia pipientis): > 10 µM |
| COc1cccc(-c2noc(C3CCN(Cc4cccs4)C3)n2)c1.Cl (stereo unspecified) | 13.9 µM and 12.6 µM | 4.852 and 4.875 | – | – |
| CC(C)n1ccc(-c2cc(C(=O)N3CCCC3)c3ccccn23)n1 | – | – | < 4.21 | pIC50 [4]: < 4 |
| Cc1ccc(-c2nc(CN3CCC(C(=O)N(C)C)CC3)cs2)o1 | 46.3 µM and 43.1 µM | < 4 | – | – |
| CCOCCCn1c(NC(=O)c2scnc2C)nc2ccccc21 | – | – | 4.523 and 4.463 | IC50 [5]: > 29.5 µM |
| CCC(C)NC(=O)NCCCn1nc2ccccn2c1=O (stereo unspecified) | – | – | < 4.21 | IC50 (Histidine--tRNA ligase): > 100 µM |
| CN(C(=O)Cc1ccc(NC(=O)NC2CCC2)cc1)c1ccccc1 | > 100 µM | < 4 | – | – |
| O=C(NCCCN1CCOCC1)c1ccn(-c2ccc3ccccn23)n1.O=C(O)C(F)(F)F | > 100 µM | < 4 | – | – |
| COCCN1CCc2cc(C(=O)NCC3CC3)c(NC(C)C)nc2CC1.O=C(O)C(F)(F)F.O=C(O)C(F)(F)F | – | – | 5.014 and 5.099 | IC50 [6]: 18.4 µM and 14.5 µM; IC50 (ClpP1P2): > 100 µM |
| Cn1cccc1C(=O)N1CCC2(CC1)CN(c1cncnc1)C(=O)CO2 | > 100 µM | < 4 | – | – |
| O=C(CC1CN(Cc2ccccc2)CCO1)Nc1ccccc1F (stereo unspecified) | 12.6 µM and 13.6 µM | 4.434 and 4.445 | – | – |
| CCOc1ccc(S(=O)(=O)NCc2cccnc2N(C)C)cc1 | – | – | 5.549 and 5.242 | IC50 (Leishmania donovani): > 50.1 µM; IC50 (Lysine--tRNA ligase): > 50.1 µM |
| O=C(c1ccc(C2CCCO2)s1)N1Cc2ccccc2C1 (stereo unspecified) | 16.1 µM and 11.4 µM | 4.241 and < 4 | – | – |
| Cc1ccc(N2CC[C@H]3O[C@@H](C(=O)NCc4ccco4)CC[C@H]32)nn1.O=C(O)C(F)(F)F | > 100 µM | < 4 | – | – |
| NC(=O)c1nc(COc2ccc3c(c2)OCO3)no1 | 8.85 µM and 10.5 µM | < 4 | – | – |

| SMILES | IC50 (Proteasome subunit beta) | pIC50 [1] | pIC50 [3] | other results |
| --- | --- | --- | --- | --- |
| Cc1cnn(CC2CN(c3cnc4ccccc4n3)CCO2)c1 (stereo unspecified) | 17.8 µM and 19.4 µM | 4.14 and 4.151 | – | IC50 [7]: 14.4 µM; IC50 [8]: 16.4 µM |
| CCc1nc(COc2ccc(OCc3cnn(C)c3)cc2)no1 | 12.3 µM and 13.3 µM | 4.267 and 4.334 | – | – |
| CNC(=O)c1cnc(/C=C/c2ccc(OC)c(O)c2)s1 | 17.4 µM and 13.8 µM | 4.132 and < 4 | – | – |
| N#Cc1c(F)cccc1N1CCN(S(=O)(=O)c2cccs2)CC1 | – | – | 4.537 and 4.564 | Percent Effect (Schistosoma mansoni): 35.72%; IC50 [5]: > 29.5 µM |
| CCc1nc(CN2CCCN(C(=O)CCc3ccco3)CC2)cs1 | > 100 µM | < 4 | – | – |
| c1ccc2sc(N3CCOC(Cn4cccn4)C3)nc2c1 (stereo unspecified) | 18 µM and 17.7 µM | 4.135 and 4.203 | – | – |
| COc1cccc(-c2nc(C)c(C(=O)NC(CO)CCSC)s2)c1 (stereo unspecified) | 27.3 µM and 32.3 µM | 4.212 | – | – |
| COc1cc(CN(C)C(=O)Cc2c(C)nn(C)c2C)ccc1OC(F)F | – | – | 5.786 [middle of 4 runs] | Percent Effect (Schistosoma mansoni): -34.16% |
| Cc1nc(CN2CCCC(N(C)Cc3cscn3)C2)no1 (stereo unspecified) | 34.8 µM and 26.4 µM | < 4 | – | – |
| CC1CN(CC2CCCCC2)CCN1c1ccc2nncn2n1 (stereo unspecified) | – | – | 4.49 and 4.459 | IC50 [5]: > 29.5 µM; IC50 (ClpP1P2): > 100 µM |
| CC(C)c1n[nH]c(C(=O)Nc2ccncc2)c1Br | – | – | 4.519 and 4.533 | IC50 (Leishmania donovani): > 50.1 µM |
| Cc1cc(C(C)C(=O)N2CCCN(Cc3cscn3)CC2)c(C)o1 (stereo unspecified) | > 100 µM | < 4 | – | – |
| CN(C)c1cc(CNC(=O)Nc2ccc(F)cc2)ccn1 | 14.4 µM and 16.9 µM | 4.234 and 4.227 | – | – |
| O=C(c1cn(-c2ccccc2Cl)nn1)N1CCCSCC1 | 14.2 µM and 16.4 µM | 4.282 and 4.315 | – | – |
| COCC1CCCN(C(=O)c2cc(Cn3ccc4ccccc43)[nH]n2)C1 (stereo unspecified) | – | – | < 4.21 | IC50 [5]: > 29.5 µM and 18.8 µM |
| CCc1nnc2n1CCN(Cc1csc(-c3ccc(C)o3)n1)C2 | > 100 µM | < 4 | – | – |
| CC(C)c1cc2c(O)nc(CSCC(=O)O)nc2s1 | 7.28 µM and 8.24 µM | 4.494 and 4.54 | – | – |
| Cc1cnn(CC2CN(c3ncnc4ccsc34)CCO2)c1 (stereo unspecified) | – | – | 5.764 [middle of 4 runs] | IC50 (Leishmania donovani): > 50.1 µM |
| Cc1cc(C(=O)N2CCc3nnc(N)cc3C2)c(C)n1-c1cccnc1 | > 100 µM | < 4 | – | – |
| Cc1ccc(-c2cc(C(=O)NC(C)C(=O)N3CCCCC3)on2)cc1 (stereo unspecified) | 26.1 µM and 26.7 µM | 4.246 and 4.264 | – | – |
| CC(C)=CCN1C[C@H]2CC[C@@H]1CN(C(=O)c1c[nH]c(=O)c(Cl)c1)C2 | > 100 µM | < 4 | – | – |
| CCOc1cc(/C=C/c2ncc(C(=O)O)s2)ccc1O | 15.5 µM and 21.9 µM | 4.099 and 4.094 | – | – |
| Cn1cc(-c2csc(N3CCN(C(=O)OC(C)(C)C)CC3)n2)cn1 | – | – | 4.669 and 4.891 | Percent Effect (Schistosoma mansoni): -8.994% |
| COc1cccc(-c2nc(CNCCn3cccn3)cs2)c1 | 13.4 µM and 11.8 µM | 4.359 and 4.346 | – | – |
